Activity calls are given as the source filed them. No rule for the calls is given here.
Molecular target: Caspase-3 (Homo sapiens) + Caspase-9 (Homo sapiens) (UniProt P42574+P55211)
Assay: caspase-9/caspase-3 cascade inhibitors, SAR follow-up, selectivity assay for Apaf-1 inhibitor project, biochemical, fluorescence (AID 588577)
Settings: recombinant LZ-caspase-9 activating caspase-3, fluorogenic substrate

Caspase-3 (Homo sapiens) + Caspase-9 (Homo sapiens), sequence (P42574 whole entry, looked up): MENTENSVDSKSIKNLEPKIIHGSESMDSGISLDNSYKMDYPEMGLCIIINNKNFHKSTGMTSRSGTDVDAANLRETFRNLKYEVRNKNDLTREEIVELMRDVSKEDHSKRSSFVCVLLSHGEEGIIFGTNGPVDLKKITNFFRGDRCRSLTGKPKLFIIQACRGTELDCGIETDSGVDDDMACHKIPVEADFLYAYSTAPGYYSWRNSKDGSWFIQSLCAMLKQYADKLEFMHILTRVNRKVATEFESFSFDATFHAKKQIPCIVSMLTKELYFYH
Caspase-3 (Homo sapiens) + Caspase-9 (Homo sapiens), sequence (P55211 whole entry, looked up): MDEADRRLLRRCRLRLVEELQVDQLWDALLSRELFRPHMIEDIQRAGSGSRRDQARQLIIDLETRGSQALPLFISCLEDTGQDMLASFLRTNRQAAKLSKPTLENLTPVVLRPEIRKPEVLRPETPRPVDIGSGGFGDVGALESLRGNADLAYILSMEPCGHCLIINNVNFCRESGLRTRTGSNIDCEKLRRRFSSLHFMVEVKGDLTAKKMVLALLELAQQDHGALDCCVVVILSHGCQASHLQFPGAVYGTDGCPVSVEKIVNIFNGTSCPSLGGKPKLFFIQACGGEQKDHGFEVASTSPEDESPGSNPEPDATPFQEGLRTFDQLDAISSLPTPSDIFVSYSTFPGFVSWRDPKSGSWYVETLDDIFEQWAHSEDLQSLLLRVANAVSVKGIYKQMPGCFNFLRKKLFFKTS

With CCN(CC)CCOC(=O)c1ccc(N/C=C(/C#N)c2nc(-c3ccc(OC)c(OC)c3)cs2)cc1 the IC50 was > 100 µM (inactive).
CCN(CC)CCOC(=O)c1ccc(N/C=C(\C#N)c2nc(-c3ccc(Br)cc3)cs2)cc1 was tested, and the IC50 was > 100 µM (inactive).
With CCN(CC)CCOC(=O)c1ccc(N/C=C(/C#N)c2nc(-c3cc4ccccc4oc3=O)cs2)cc1 the IC50 was > 100 µM (inactive).
In the case of Cc1nc2ccc(-c3nc4ccc(NC(=O)c5cccs5)cc4[nH]3)cc2[nH]1, the IC50 is reported as > 100 µM (inactive).
Cc1ccc2c(c1)C(=O)c1nc3ccccc3c(=O)n1-2 was tested, and the IC50 was > 100 µM (inactive).
For O=C(Nc1ccc2nc(-c3ccc(Br)o3)[nH]c2c1)c1cccs1, the IC50 was > 100 µM (inactive).
In the case of CC(=O)c1ccc(C(=O)Nc2ccc3nc(C)[nH]c3c2)s1, the IC50 is reported as > 100 µM (inactive).
For O=C(Nc1ccc(-c2nc3ccc(NC(=O)c4cccs4)cc3[nH]2)cc1)c1cccs1, the IC50 was > 100 µM (inactive).
In the case of CCN(CC)CCOC(=O)c1ccc(N/C=C(/C#N)c2nc(-c3ccc4c(c3)OCO4)cs2)cc1, the IC50 is reported as > 100 µM (inactive).
For Cc1cc(NC(=O)C2CC2)sc1C(=O)Nc1ccc2nc(-c3cc(F)ccc3F)[nH]c2c1, the IC50 was 89.7 µM.
O=C(Nc1ccc2c(c1)C(=O)NC2=O)c1nc2ccccc2s1 was tested, and the IC50 was > 100 µM (inactive).
For Cc1ccc(-c2nc3ccc(NC(=O)c4cccs4)cc3[nH]2)o1, the IC50 was > 100 µM (inactive).
For CCN(CC)CCOC(=O)c1ccc(N/C=C(\C#N)c2nc(-c3cccs3)cs2)cc1, the IC50 was > 100 µM (inactive).
Work on Cn1cc(C(CC(=O)c2ccc(C3CCCCC3)cc2)C(=O)O)c2ccccc21 (stereo not given) yielded an IC50 of 98.8 µM.
Compound COc1ccc(N2C(=O)CC3(CC(c4ccc(F)cc4)=NO3)C2=O)cc1 (stereo not given) has an IC50 of 37.5 µM.
Work on O=C1c2cc(Cl)ccc2-n2c1nc1ccccc1c2=O yielded an IC50 of 89.6 µM.
In the case of O=C(Nc1ccc2nc(-c3cccs3)[nH]c2c1)c1cccs1, the IC50 is reported as > 100 µM (inactive).
Work on Cn1cc(C(CC(=O)c2ccc(C(C)(C)C)cc2)C(=O)O)c2ccccc21 (stereo not given) yielded an IC50 of 85.3 µM.
For CCN(CC)CCOC(=O)c1ccc(N/C=C(\C#N)c2nc(-c3ccc(Cl)c(Cl)c3)cs2)cc1, the IC50 was 72 µM.
CCN(CC)CCOC(=O)c1ccc(N/C=C(/C#N)c2nc(-c3ccc(OC)cc3)cs2)cc1 was tested, and the IC50 was > 100 µM (inactive).
